Data from patent US20060252807A1, “Novel ortho-terphenyl inhibitors of p38 kinase and methods of treating inflammatory disorders” (Kalypsys, Inc., priority 2005, published 2006).

Molecular target: T1, active p38 alpha enzyme (Upstate Biotechnology) (Homo sapiens, UniProt Q16539)
T1 construct: purchased Upstate Biotechnology
Assay: p38α biochemical assay (ATP turnover, luminescent detection, Cambrex PKlight)
Settings: p38α kinase; Table 1 Biological Activity
Procedure, shortened: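 In this kinase reaction, p38α used MapkapK2 as phosphorylation substrate at low ATP (1.4 uM final) over 2 hours at 30C, and activity was followed as ATP turnover by luminescence.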

T1 sequence (Q16539 whole entry): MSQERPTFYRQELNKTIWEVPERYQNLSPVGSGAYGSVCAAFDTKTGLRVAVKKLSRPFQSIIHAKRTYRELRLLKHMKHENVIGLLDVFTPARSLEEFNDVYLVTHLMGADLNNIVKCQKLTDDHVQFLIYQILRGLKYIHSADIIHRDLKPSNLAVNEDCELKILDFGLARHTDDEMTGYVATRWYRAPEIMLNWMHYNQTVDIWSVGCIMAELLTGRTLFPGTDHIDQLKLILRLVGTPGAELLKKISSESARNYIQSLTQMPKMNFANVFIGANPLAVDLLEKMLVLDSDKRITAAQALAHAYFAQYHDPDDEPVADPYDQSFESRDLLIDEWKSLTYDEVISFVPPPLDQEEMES

In the case of `Cc1nc(-c2ccc(F)cc2)c(-c2nc(C(=O)Nc3ccc(C)c(Cl)c3)cs2)s1` [Example 1993], the IC50 is reported as greater than 1000 nM.

`Cc1nc(-c2ccc(F)cc2)c(-c2nc(C(=O)Nc3cnc4ccccc4c3)cs2)s1` [Example 1994] showed an IC50 of no more than 1000 nM.

With `Cc1nc(-c2ccc(F)cc2)c(-c2nc(C(=O)Nc3cc(F)c(F)cc3F)cs2)s1` [Example 1995] the IC50 was greater than 1000 nM.

`Cc1nc(-c2ccc(F)cc2)c(-c2nc(C(=O)NC3CCCc4ccccc43)cs2)s1` (stereo not shown) [Example 1996] gave an IC50 greater than 1000 nM.

With `Cc1nc(-c2ccc(F)cc2)c(-c2nc(C(=O)Nc3ccccc3C(C)(C)C)cs2)s1` [Example 1997] the IC50 was greater than 1000 nM.

`Cc1nc(-c2ccc(F)cc2)c(-c2nc(C(=O)Nc3c(C)cccc3C(C)C)cs2)s1` [Example 1998] showed an IC50 greater than 1000 nM.

`Cc1nc(-c2ccc(F)cc2)c(-c2nc(C(=O)Nc3ccc4ncsc4c3)cs2)s1` [Example 1999] was tested, and the IC50 was greater than 1000 nM.

In the case of `CC(=O)Nc1ccc(NC(=O)c2csc(-c3sc(C)nc3-c3ccc(F)cc3)n2)cc1` [Example 2000], the IC50 is reported as no more than 1000 nM.

Work on `CC(=O)Nc1ccc(NC(=O)c2csc(-c3sc(C)nc3-c3ccc(F)cc3)n2)cn1` [Example 2001] yielded an IC50 of no more than 1000 nM.

`Cc1nc(-c2ccc(F)cc2)c(-c2nc(C(=O)Nc3ccc4c(c3)OCCO4)cs2)s1` [Example 2002] gave an IC50 of no more than 1000 nM.

With `COc1ccc(NC(=O)c2csc(-c3sc(C)nc3-c3ccc(F)cc3)n2)cc1OC` [Example 2003] the IC50 was greater than 1000 nM.

Work on `Cc1nc(-c2ccc(F)cc2)c(-c2nc(C(=O)Nc3ccccc3-n3cccc3)cs2)s1` [Example 2004] yielded an IC50 greater than 1000 nM.

`Cc1nc(-c2ccc(F)cc2)c(-c2nc(C(=O)Nc3ccc(C(F)(F)F)cc3)cs2)s1` [Example 2005] was tested, and the IC50 was greater than 1000 nM.

Molecule `Cc1nc(-c2ccc(F)cc2)c(-c2nc(C(=O)Nc3cccc(C(F)(F)F)c3)cs2)s1` [Example 2006] has an IC50 greater than 1000 nM.

`Cc1nc(-c2ccc(F)cc2)c(-c2nc(C(=O)Nc3ccc(Cl)c(Cl)c3)cs2)s1` [Example 2007] showed an IC50 greater than 1000 nM.

`Cc1nc(-c2ccc(F)cc2)c(-c2nc(C(=O)Nc3c(C)cccc3C(C)(C)C)cs2)s1` [Example 2008] gave an IC50 of no more than 1000 nM.

For `Cc1nc(-c2ccc(F)cc2)c(-c2nc(C(=O)Nc3ccc(N(C)C)cc3)cs2)s1` [Example 2009], the IC50 was no more than 1000 nM.

For `Cc1nc(-c2ccc(F)cc2)c(-c2nc(C(=O)Nc3ccccc3-c3ccccc3)cs2)s1` [Example 2010], the IC50 was no more than 1000 nM.

`Cc1nc(-c2ccc(F)cc2)c(-c2nc(C(=O)Nc3ccc(OC(F)(F)F)cc3)cs2)s1` [Example 2011] was tested, and the IC50 was greater than 1000 nM.

Molecule `Cc1nc(-c2ccc(F)cc2)c(-c2nc(C(=O)Nc3c(C(C)C)cccc3C(C)C)cs2)s1` [Example 2012] has an IC50 greater than 1000 nM.

In the case of `Cc1nc(-c2ccc(F)cc2)c(-c2nc(C(=O)Nc3ccc(F)cc3C(F)(F)F)cs2)s1` [Example 2013], the IC50 is reported as greater than 1000 nM.

For `Cc1nc(-c2ccc(F)cc2)c(-c2nc(C(=O)Nc3cc(C(F)(F)F)ccc3F)cs2)s1` [Example 2014], the IC50 was greater than 1000 nM.

Work on `Cc1nc(-c2ccc(F)cc2)c(-c2nc(C(=O)Nc3ccc(F)c(C(F)(F)F)c3)cs2)s1` [Example 2015] yielded an IC50 greater than 1000 nM.

With `CCOc1ccc(OCC)c(NC(=O)c2csc(-c3sc(C)nc3-c3ccc(F)cc3)n2)c1` [Example 2016] the IC50 was greater than 1000 nM.

Work on `Cc1nc(-c2ccc(F)cc2)c(-c2nc(C(=O)Nc3cc(Cl)c(Cl)c(Cl)c3)cs2)s1` [Example 2017] yielded an IC50 greater than 1000 nM.

`Cc1nc(-c2ccc(F)cc2)c(-c2nc(C(=O)Nc3ccccc3C(=O)c3ccccc3)cs2)s1` [Example 2018] gave an IC50 greater than 1000 nM.

`Cc1nc(-c2ccc(F)cc2)c(-c2nc(C(=O)Nc3ccccc3COc3ccccc3)cs2)s1` [Example 2019] gave an IC50 greater than 1000 nM.

In the case of `COc1ccc(-c2ccccc2)cc1NC(=O)c1csc(-c2sc(C)nc2-c2ccc(F)cc2)n1` [Example 2020], the IC50 is reported as greater than 1000 nM.

In the case of `Cc1nc(-c2ccc(F)cc2)c(-c2nc(C(=O)Nc3ncccc3OCc3ccccc3)cs2)s1` [Example 2021], the IC50 is reported as greater than 1000 nM.

For `Cc1nc(-c2ccc(F)cc2)c(-c2nc(C(=O)Nc3cc(C(F)(F)F)ccc3C(F)(F)F)cs2)s1` [Example 2022], the IC50 was greater than 1000 nM.

With `Cc1nc(-c2ccc(F)cc2)c(-c2nc(C(=O)Nc3cc(C(F)(F)F)cc(C(F)(F)F)c3)cs2)s1` [Example 2023] the IC50 was greater than 1000 nM.

`Cc1nc(-c2ccc(F)cc2)c(-c2nc(C(=O)Nc3ccc(C(F)(F)F)cc3C(F)(F)F)cs2)s1` [Example 2024] was tested, and the IC50 was no more than 1000 nM.

Molecule `O=C(NCC1CC1)c1csc(-c2c(-c3ccc(F)cc3)n[nH]c2C2CCNCC2)n1` [Example 2029] has an IC50 of no more than 1000 nM.

`O=C(O)c1csc(-c2c(-c3ccc(F)cc3)n[nH]c2C2CCNCC2)n1` [Example 2030] gave an IC50 greater than 1000 nM.

For `CNC(=O)c1csc(-c2c(-c3ccc(F)cc3)n[nH]c2C2CCNCC2)n1` [Example 2031], the IC50 was no more than 1000 nM.

`N#CCNC(=O)c1csc(-c2c(-c3ccc(F)cc3)n[nH]c2C2CCNCC2)n1` [Example 2032] was tested, and the IC50 was no more than 1000 nM.

In the case of `O=C(NC1CC1)c1csc(-c2c(-c3ccc(F)cc3)n[nH]c2C2CCNCC2)n1` [Example 2033], the IC50 is reported as no more than 1000 nM.

`CCCNC(=O)c1csc(-c2c(-c3ccc(F)cc3)n[nH]c2C2CCNCC2)n1` [Example 2034] gave an IC50 greater than 1000 nM.

In the case of `NCCNC(=O)c1csc(-c2c(-c3ccc(F)cc3)n[nH]c2C2CCNCC2)n1` [Example 2035], the IC50 is reported as greater than 1000 nM.

Molecule `O=C(NCCO)c1csc(-c2c(-c3ccc(F)cc3)n[nH]c2C2CCNCC2)n1` [Example 2036] has an IC50 of no more than 1000 nM.

For `N#CCCNC(=O)c1csc(-c2c(-c3ccc(F)cc3)n[nH]c2C2CCNCC2)n1` [Example 2037], the IC50 was greater than 1000 nM.

Work on `O=C(NC1CCC1)c1csc(-c2c(-c3ccc(F)cc3)n[nH]c2C2CCNCC2)n1` [Example 2038] yielded an IC50 of no more than 1000 nM.

Molecule `CCC(C)NC(=O)c1csc(-c2c(-c3ccc(F)cc3)n[nH]c2C2CCNCC2)n1` (stereo not shown) [Example 2039] has an IC50 of no more than 1000 nM.

`CC(C)CNC(=O)c1csc(-c2c(-c3ccc(F)cc3)n[nH]c2C2CCNCC2)n1` [Example 2040] showed an IC50 greater than 1000 nM.

`O=C(NCCCO)c1csc(-c2c(-c3ccc(F)cc3)n[nH]c2C2CCNCC2)n1` [Example 2041] was tested, and the IC50 was no more than 1000 nM.

With `CC(CO)NC(=O)c1csc(-c2c(-c3ccc(F)cc3)n[nH]c2C2CCNCC2)n1` (stereo not shown) [Example 2042] the IC50 was no more than 1000 nM.

Work on `COCCNC(=O)c1csc(-c2c(-c3ccc(F)cc3)n[nH]c2C2CCNCC2)n1` [Example 2043] yielded an IC50 of no more than 1000 nM.

`O=C(NC1CCCC1)c1csc(-c2c(-c3ccc(F)cc3)n[nH]c2C2CCNCC2)n1` [Example 2044] was tested, and the IC50 was no more than 1000 nM.

`CCCC(C)NC(=O)c1csc(-c2c(-c3ccc(F)cc3)n[nH]c2C2CCNCC2)n1` (stereo not shown) [Example 2045] gave an IC50 of no more than 1000 nM.

In the case of `CCC(C)CNC(=O)c1csc(-c2c(-c3ccc(F)cc3)n[nH]c2C2CCNCC2)n1` (stereo not shown) [Example 2046], the IC50 is reported as greater than 1000 nM.

`CC(C)C(C)NC(=O)c1csc(-c2c(-c3ccc(F)cc3)n[nH]c2C2CCNCC2)n1` (stereo not shown) [Example 2047] showed an IC50 greater than 1000 nM.

With `CC(C)CCNC(=O)c1csc(-c2c(-c3ccc(F)cc3)n[nH]c2C2CCNCC2)n1` [Example 2048] the IC50 was greater than 1000 nM.

`CN(C)CCNC(=O)c1csc(-c2c(-c3ccc(F)cc3)n[nH]c2C2CCNCC2)n1` [Example 2049] was tested, and the IC50 was greater than 1000 nM.

For `COCC(C)NC(=O)c1csc(-c2c(-c3ccc(F)cc3)n[nH]c2C2CCNCC2)n1` (stereo not shown) [Example 2050], the IC50 was greater than 1000 nM.

Work on `CCC(CO)NC(=O)c1csc(-c2c(-c3ccc(F)cc3)n[nH]c2C2CCNCC2)n1` (stereo not shown) [Example 2051] yielded an IC50 of no more than 1000 nM.

For `CCC(CO)NC(=O)c1csc(-c2c(-c3ccc(F)cc3)n[nH]c2C2CCNCC2)n1` (stereo not shown) [Example 2052], the IC50 was greater than 1000 nM.

`O=C(NCCCCO)c1csc(-c2c(-c3ccc(F)cc3)n[nH]c2C2CCNCC2)n1` [Example 2053] showed an IC50 greater than 1000 nM.

With `O=C(NCc1ccco1)c1csc(-c2c(-c3ccc(F)cc3)n[nH]c2C2CCNCC2)n1` [Example 2054] the IC50 was greater than 1000 nM.

`O=C(NC1CCCCC1)c1csc(-c2c(-c3ccc(F)cc3)n[nH]c2C2CCNCC2)n1` [Example 2055] gave an IC50 greater than 1000 nM.

`O=C(NCC1CCCO1)c1csc(-c2c(-c3ccc(F)cc3)n[nH]c2C2CCNCC2)n1` (stereo not shown) [Example 2056] showed an IC50 greater than 1000 nM.

With `CC(C)(C)CCNC(=O)c1csc(-c2c(-c3ccc(F)cc3)n[nH]c2C2CCNCC2)n1` [Example 2057] the IC50 was greater than 1000 nM.

Molecule `CC(C)CC(C)NC(=O)c1csc(-c2c(-c3ccc(F)cc3)n[nH]c2C2CCNCC2)n1` (stereo not shown) [Example 2058] has an IC50 greater than 1000 nM.

Work on `O=C(NC1CONC1=O)c1csc(-c2c(-c3ccc(F)cc3)n[nH]c2C2CCNCC2)n1` (stereo not shown) [Example 2059] yielded an IC50 greater than 1000 nM.

`O=C(NN1CCOCC1)c1csc(-c2c(-c3ccc(F)cc3)n[nH]c2C2CCNCC2)n1` [Example 2060] gave an IC50 greater than 1000 nM.

With `CC(C)C(CO)NC(=O)c1csc(-c2c(-c3ccc(F)cc3)n[nH]c2C2CCNCC2)n1` (stereo not shown) [Example 2061] the IC50 was no more than 1000 nM.

In the case of `O=C(NCc1ccccc1)c1csc(-c2c(-c3ccc(F)cc3)n[nH]c2C2CCNCC2)n1` [Example 2062], the IC50 is reported as greater than 1000 nM.

`O=C(NCc1ccccn1)c1csc(-c2c(-c3ccc(F)cc3)n[nH]c2C2CCNCC2)n1` [Example 2063] was tested, and the IC50 was greater than 1000 nM.

In the case of `O=C(NCc1ccncc1)c1csc(-c2c(-c3ccc(F)cc3)n[nH]c2C2CCNCC2)n1` [Example 2064], the IC50 is reported as no more than 1000 nM.

`O=C(NCc1cccs1)c1csc(-c2c(-c3ccc(F)cc3)n[nH]c2C2CCNCC2)n1` [Example 2065] gave an IC50 greater than 1000 nM.

For `CC1CCC(NC(=O)c2csc(-c3c(-c4ccc(F)cc4)n[nH]c3C3CCNCC3)n2)CC1` (stereo not shown) [Example 2066], the IC50 was greater than 1000 nM.

For `O=C(NCC1CCCCC1)c1csc(-c2c(-c3ccc(F)cc3)n[nH]c2C2CCNCC2)n1` [Example 2067], the IC50 was greater than 1000 nM.

Work on `O=C(NC1CCCCCC1)c1csc(-c2c(-c3ccc(F)cc3)n[nH]c2C2CCNCC2)n1` [Example 2068] yielded an IC50 greater than 1000 nM.

In the case of `CC1CCCCC1NC(=O)c1csc(-c2c(-c3ccc(F)cc3)n[nH]c2C2CCNCC2)n1` (stereo not shown) [Example 2069], the IC50 is reported as greater than 1000 nM.

`O=C(NCCN1CCCC1)c1csc(-c2c(-c3ccc(F)cc3)n[nH]c2C2CCNCC2)n1` [Example 2070] gave an IC50 greater than 1000 nM.

Molecule `CN1CCN(NC(=O)c2csc(-c3c(-c4ccc(F)cc4)n[nH]c3C3CCNCC3)n2)CC1` [Example 2071] has an IC50 greater than 1000 nM.

For `CCN(CC)CCNC(=O)c1csc(-c2c(-c3ccc(F)cc3)n[nH]c2C2CCNCC2)n1` [Example 2072], the IC50 was greater than 1000 nM.
